Reference: patent publication US5705693A, “Cationic lipids” (Gilead Sciences, Inc., priority 1995, dated 1998)

Columns and labels:
[1] = tested on: SK-BR-3 cells; experiment: Transfection of SK-BR-3 cells with ODN1 using 34 (Example 12); assay type: cell-based, human; conditions: 6 h, 1:1 DOPE
Method: (§1) Preparation of lipid-nucleic acid complexes and cell transfection.
(§2) SK-BR-3, Caco-2, Caov-3 and MCF7 cells were transfected with ODN1 using 34 which was prepared as described in Example 5 using a 1:1 molar ratio of DOPE colipid. The sonicated lipid-colipid mixture (1 mL of a 2.5, 5 or 10 μg/mL suspension) was mixed with 250 pmole ODN1 and allowed to stand […] at room temperature […] before adding 1 mL of the lipid-ODN1 complex to the cells. The lipid-ODN1 complex was removed from the cells after 6 hours by washing the cells twice in PBS, followed by observing the cells in serum-containing medium immediately after removing the lipid-ODN1 complex.

[2] = tested on: cells; experiment: Transfection with filtered preparations; assay type: cell-based; conditions: 1:1 DOPE, sonicated
Method: The invention cationic lipids 30 or 34 and DOPE colipid (1:1) were prepared by sonication and then filtered using 200, 100 or 50 nm filters to obtain particles less than about 200 nm in diameter, less than about 100 nm and less than about 50 nm. […] The 50 nm filtered preparations were about 40-50% as efficient as the preparations containing larger particles. The size of the particles or miscelles in a given preparation will vary depending on the preparation method. Sonicating cationic lipid-colipid mixtures will provide smaller miscelles and vortexing will provide larger miscelles (Felgner J. Biol. Chem. (1994) 269:2550-2561). Such miscelles are believed to transfer the polyanion into the cytoplasm of a eukaryotic or prokaryotic cell by pinocytosis, endocytosis and/or by direct fusion with the plasma membrane.

[3] = tested on: T antigen; experiment: Antisense inhibition of T antigen expression in CV-1 cells with ODN2A (Example 19); assay type: cell-based, African green monkey
Method: ODN2A, which was ODN2 lacking the fluorescent label at the 3' terminus, was used as an antisense oligonucleotide to inhibit T antigen expression in CV-1 cells using the protocol previously described (Wagner Science (1993) 260:1510-1513). CV-1 cells were transfected for 18 hours using 5 μg of 34 (1:1 molar ratio with DOPE colipid) and then cell nuclei were microinjected with T antigen plasmid using a needle concentration of 0.003 μg/mL of T antigen plasmid (ibid at page 1513, first column, note 5) and 0.025 μg/mL of β-galactosidase plasmid. The cells were scored for T antigen expression 4.5 hours after removing the transfection preparation from the cells. The cells were immunostained for β-galactosidase expression as an internal control for microinjected cells and the proportion of cells expressing both T antigen and β-galactosidase was determined.

[4] = Transfection of Caov-3 cells with ODN1 using 34 (Example 12); assay type: cell-based, human; conditions: human, caov-3 cells; Caov-3, 10.0 μg lipid; read-out: toxicity
Method: as §1, §2

[5] = tested on: Caov-3 cells; experiment: as above; assay type: cell-based, human; conditions: 6 h, 1:1 DOPE
Method: as §1, §2

[6] = tested on: CV-1 cells; experiment: Transfection of CV-1 cells with CAT RNA (Example 16); assay type: cell-based, African green monkey; conditions: 2.5 μg RNA, 5 μg lipid, 24 h, DMEM 10% FBS or Optimem
Method: CV-1 cells were transfected for 24 hours with RNA encoding chloramphenicol acetyltransferase (CAT). The transfections used 2.5 μg of RNA, 5 μg of 34 and DMEM with 10% FBS or Optimem™ with no serum. CAT activity was measured by immunofluorescence staining using fluorescent labeled anti-CATantibodies (5',3'Inc.). The cells were observed as previously described (Wagner, Science (1993) 260:1510).

[7] = tested on: MCF7 cells; experiment: Transfection of MCF7 cells with ODN1 using 34 (Example 12); assay type: cell-based, human; conditions: 6 h, 1:1 DOPE
Method: as §1, §2

[8] = tested on: cells; experiment: Amount of fluorescently labeled oligonucleotide delivered versus commercially available lipids; assay type: cell-based; conditions: observed fluorescence intensity, estimated
Excerpt: The difference in transfection efficiency between lipids described herein and commercially available lipids is usually most pronounced when the transfections are done in the presence of medium containing serum. The amount of polyanion delivered into cells was estimated to be about 2- to 100-fold greater for lipids 30, 34 and 35 based on the observed fluorescence intensity of transfected cells after transfection using a fluorescently labeled oligonucleotide. The cationic lipids described herein also transfect some cell types that are not detectably transfected by commercial lipids, particularly where the transfection is conducted in the presence of serum.

[9] = tested on: Caco-2 cells; experiment: Transfection of Caco-2 cells with ODN1 using 34 (Example 12); assay type: cell-based, human; conditions: 6 h, 1:1 DOPE
Method: as §1, §2

[10] = as above; assay type: cell-based, human; conditions: human, caco-2 cells; Caco-2, 5.0 μg lipid; read-out: toxicity
Method: as §1, §2

[11] = tested on: cdc-2 kinase; experiment: cdc-2 antisense oligonucleotide analog transfection, Western blot (Example 22); assay type: cell-based, African green monkey; conditions: 30 nM cdc-2 antisense oligonucleotide analog, 2.5 and 5.0 μg lipid
Excerpt: The oligonucleotide contained 5-(1-propynyl)cytosine in place of cytosine and 5-(1-propynyl)uracil in place of uracil. A control oligonucleotide analog having a mismatched base sequence was also used to check for any non-specific effect on cdc-2 kinase levels in the transfected cells caused by the oligonucleotide analog. A control containing only lipid was also used as a control. […] Protein levels were examined by Western blot analysis.

[12] = Transfection of CV-1 cells with ODN1 and toxicity (Example 22); assay type: cell-based, African green monkey; conditions: monkey, cv-1 cells; 10.0 μg lipid
Method: (§3) Lipids 35, 52, 54 and 55 were each prepared using a 2:1 lipid:DOPE molar ratio as follows. Two molar equivalents of each lipid in CHCl3 and one equivalent of DOPE in CHCl3 was dried under reduced pressure by rotovap at room temperature. Deionized water was then added to give 1 mg/mL of total lipid. 10 mL of water containing 10 mg of lipid was vortexed for 5 minutes in a 100 mL round bottom flask. 2 mL aliquots were then used to prepare lipid suspensions for complexing with ODN1. Each preparation was obtained by 6 cycles of freezing on dry ice and thawing in a 37° C. water bath.

[13] = tested on: CV-1 cells; experiment: as above; assay type: cell-based, African green monkey; conditions: for % cells transfected: 2:1 DOPE, 6 h, 10% FBS, 250 pmole ODN1
Method: as §3

[14] = tested on: CV-1 cells; experiment: Transfection of CV-1 cells with five 35:DOPE preparations (Example 20); assay type: cell-based, African green monkey; conditions: 35:DOPE 2:1, 1 μg lipid, 6 h, 10% FBS; in words
Method: Lipid complexes consisting of 35:DOPE (2:1 molar ratio) were prepared as follows. Two molar equivalents of 35 in CHCl3 and one equivalent of DOPE in CHCl3 was dried under reduced pressure by rotovap at room temperature. Deionized water was then added to give 1 mg/mL of total lipid. 10 mL of water containing 10 mg of lipid was vortexed for 5 minutes in a 100 mL round bottom flask. 2 mL aliquots were then used to prepare lipid suspensions for complexing with ODN1. The first preparation was obtained by directly using the vortexed 2 mL aliquot to prepare complexes with ODN1. The second preparation was obtained by 6 cycles of freezing on dry ice and thawing in a 37° C. water bath (Baxter, Dura Bath). The third preparation was obtained by placing a culture tube containing the lipid into a Ultra Sonik 100 (NEY) sonicator and the preparation was sonicated for 30 minutes at room temperature using the probe tip at maximum power. The fourth preparation was obtained by 6 cycles of freezing on dry ice and thawing in a 37° C. water bath, followed by filtering the suspension through a Lipofast™ 100 nm filter according to the manufacturer's instructions to obtain complexes less than about 100 nm in diameter. The fifth preparation was obtained by sonication for 10 minutes in a sonication bath followed by 5 sonication pulses for 15 seconds each with a probe sonicator (Sonifier 250, Branson Ultrasonics). […]

Q: For `CCCCCCCCCCCCCCCCCCN(CCCCCCCCCCCCCCCCCC)C(=O)CNC(=O)[C@@H](N)CCCNC(=N)NC(=O)OC(C)(C)C` [Compound 34], which “% transfected” value ([1]; SK-BR-3, 2.5 μg lipid) is on record?
A: The value was 60-70%.

Q: What about the “% transfected” value ([1]; SK-BR-3, 5.0 μg lipid) of the same compound?
A: The value was > 90%.

Q: What about the “% transfected” value ([1]; SK-BR-3, 10.0 μg lipid) of the same compound?
A: Its value is > 90%.

Q: What about the “transfection efficiency of 50 nm filtered preparations relative to larger particles” value ([2]; 50 nm filter) of the same compound?
A: Its value is 40-50%.

Q: What about the “transfection efficiency of 200 nm or 100 nm filtered preparations” value ([2]; in words) of the same compound?
A: The value was “the most efficient (and equally efficient)”.

Q: What about the “efficiency in delivering ODN2A into cells compared with Lipofectin” value ([3]; 5 μg, 1:1 DOPE, 18 h, ODN2A needed to inhibit T antigen expression to an equal extent) of the same compound?
A: The value was “about 10 fold”.

Q: And the “delivery of antisense oligomer” value ([3]; in words)?
A: The value was “efficiently delivered the antisense oligomer into the cells without interfering with the capacity of the oligonucleotide to inhibit gene (protein) expression”.

Q: And the cytotoxicity at 6 h [4]?
A: The cytotoxicity at 6 h was < 10%.

Q: What about the “% transfected” value ([5]; Caov-3, 2.5 μg lipid) of the same compound?
A: The value was 20%.

Q: What about the “% transfected” value ([5]; Caov-3, 5.0 μg lipid) of the same compound?
A: Its value is 20%.

Q: What about the “% transfected” value ([5]; Caov-3, 10.0 μg lipid) of the same compound?
A: The value was 61%.

Q: What about the “cells expressing CAT” value [6] of the same compound?
A: The value was 1-2%.

Q: And the “% transfected” value ([7]; MCF7, 2.5 μg lipid)?
A: Its value is 30-50%.

Q: And the “% transfected” value ([7]; MCF7, 5.0 μg lipid)?
A: The value was 83%.

Q: And the “% transfected” value ([7]; MCF7, 10.0 μg lipid)?
A: The value was 80%.

Q: And the “amount of polyanion delivered into cells relative to commercially available lipids” value [8]?
A: Its value is 2- to 100 fold.

Q: What about the “% transfected” value ([9]; Caco-2, 2.5 μg lipid) of the same compound?
A: The value was < 5%.

Q: What about the “% transfected” value ([9]; Caco-2, 5.0 μg lipid) of the same compound?
A: The value was 10-15%.

Q: And the “% transfected” value ([9]; Caco-2, 10.0 μg lipid)?
A: Its value is 0%.

Q: And the cytotoxicity at 6 h [10]?
A: Its cytotoxicity at 6 h is < 10%.

Q: For `CCCCCCCCCCCCCCN(CCCCCCCCCCCCCC)C(=O)CNC(=O)[C@@H](N)CCCNC(=N)NC(=O)OC(C)(C)C` [Compound 35], which cdc-2 protein levels [11] is on record?
A: Its cdc-2 protein levels is “efficiently reduced cdc-2 protein levels”.

Q: What about the cytotoxicity at 6 h [12] of the same compound?
A: The cytotoxicity at 6 h was > 40%.

Q: What about the “% cells transfected” value ([13]; 1 μg lipid) of the same compound?
A: The value was 40%.

Q: What about the “% cells transfected” value ([13]; 2.5 μg lipid) of the same compound?
A: Its value is 85%.

Q: And the “% cells transfected” value ([13]; 5.0 μg lipid)?
A: Its value is 100%.

Q: And the “% cells transfected” value ([13]; 10.0 μg lipid)?
A: The value was 60%.

Q: And the “uniformity of cell staining” value ([13]; footnote, in words)?
A: The value was “relatively uniformly stained”.

Q: What about the “transfection of CV-1 cells, all preparations” value [14] of the same compound?
A: The value was “efficiently transfected CV-1 cells”.

Q: And the “amount of polyanion delivered into cells relative to commercially available lipids” value [8]?
A: The value was 2- to 100 fold.
